Source: ChEMBL document CHEMBL1201862, “PubChem BioAssay data set” (2004)
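Following 48 hours of exposure in 96-well plates, responses at five concentrations were used to interpolate endpoints linearly. GI50 marks 50% less growth.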 Calls of active or inactive are those of the source. Rule as the data show it: active = GI50 up to about 1.1 µM and inactive = higher.

Assays:
Assay in all cases: growth of human tumour cells (NCI), 48 h
[1] = system: SK-OV-3
[2] = system: HOP-92
[3] = system: NCI-H226
[4] = system: 786-0
[5] = system: DU-145
[6] = system: NCI-H460
[7] = system: NCI-H23
[8] = system: SF-268
[9] = system: RXF 393
[10] = system: HCT-15
[11] = system: SW-620
[12] = system: MDA-MB-231
[13] = system: UACC-257
[14] = system: HCC 2998
[15] = system: MOLT-4
[16] = system: MCF7
[17] = system: OVCAR-3
[18] = system: EKVX
[19] = system: M14

SMILES: COc1cc2c(cc1OCCCOc1cc(-c3ccc(F)cc3)nc(C)n1)N=C[C@@H]1CCCN1C2=O
- GI50 [1]: 25.6 µM (inactive)
- GI50 [2]: 27.4 µM (inactive)
- GI50 [3]: 15.2 µM (inactive)
- GI50 [4]: 16.7 µM (inactive)
- GI50 [5]: 9.06 µM (inactive)
- GI50 [6]: > 100 µM (inactive)
- GI50 [7]: 15.1 µM (inactive)
- GI50 [8]: 17.2 µM (inactive)
- GI50 [9]: 20.2 µM (inactive)
- GI50 [10]: 12.6 µM
- GI50 [11]: 22.9 µM (inactive)
- GI50 [12]: 13.8 µM (inactive)
- GI50 [13]: 17.3 µM (inactive)
- GI50 [14]: > 10 µM (inactive)
- GI50 [15]: 14.3 µM (inactive)
- GI50 [16]: 29.4 µM (inactive)
- GI50 [17]: 15.2 µM (inactive)
- GI50 [18]: 18.9 µM (inactive)
- GI50 [19]: 15.5 µM (inactive)

SMILES: O=C(CNc1ccc(Cl)cc1)Nn1c(-c2ccccc2)nc2ccccc2c1=O
- GI50 [1]: 10.1 µM (inactive)
- GI50 [2]: 5.07 µM (inactive)
- GI50 [3]: 5.52 µM (inactive)
- GI50 [4]: 4.18 µM (inactive)
- GI50 [5]: 15.1 µM (inactive)
- GI50 [6]: 8.79 µM (inactive)
- GI50 [7]: 5.43 µM (inactive)
- GI50 [8]: 4.62 µM (inactive)
- GI50 [9]: 6.55 µM (inactive)
- GI50 [10]: 6.7 µM
- GI50 [11]: 5.12 µM (inactive)
- GI50 [12]: 4.79 µM (inactive)
- GI50 [13]: 12.8 µM (inactive)
- GI50 [14]: 11.1 µM (inactive)
- GI50 [15]: 2.49 µM (inactive)
- GI50 [16]: 3.32 µM (inactive)
- GI50 [17]: 12.1 µM (inactive)
- GI50 [18]: 18.1 µM (inactive)
- GI50 [19]: 6.18 µM (inactive)

SMILES: COC(=O)c1c(O)ccc2c1c1c(n2Cc2ccc(Cl)cc2Cl)C(=O)c2ccccc2C1=O
- GI50 [1]: 14.3 µM (inactive)
- GI50 [2]: 12.2 µM (inactive)
- GI50 [3]: 10.9 µM (inactive)
- GI50 [4]: 10.1 µM (inactive)
- GI50 [5]: 11.6 µM (inactive)
- GI50 [6]: 3.27 µM (inactive)
- GI50 [7]: 10.5 µM (inactive)
- GI50 [8]: 10.1 µM (inactive)
- GI50 [9]: 4.09 µM (inactive)
- GI50 [10]: 5.56 µM
- GI50 [11]: 13.4 µM (inactive)
- GI50 [12]: 10.9 µM (inactive)
- GI50 [13]: 15.2 µM (inactive)
- GI50 [14]: 3.48 µM (inactive)
- GI50 [15]: 2.27 µM (inactive)
- GI50 [16]: 4.09 µM (inactive)
- GI50 [17]: 6.37 µM (inactive)
- GI50 [18]: 10.4 µM (inactive)
- GI50 [19]: 14.1 µM (inactive)

SMILES: O=C(Cc1cccs1)N[C@@H]1C(=O)N2C(C(=O)OC(c3ccccc3)c3ccccc3)=C(CO)CS[C@H]12
- GI50 [1]: > 100 µM (inactive)
- GI50 [2]: > 100 µM (inactive)
- GI50 [3]: 0.0283 µM (active)
- GI50 [4]: > 100 µM (inactive)
- GI50 [5]: > 100 µM (inactive)
- GI50 [6]: 75.2 µM (inactive)
- GI50 [7]: 46 µM (inactive)
- GI50 [9]: > 100 µM (inactive)
- GI50 [10]: 92.7 µM
- GI50 [11]: > 100 µM (inactive)
- GI50 [12]: > 100 µM (inactive)
- GI50 [13]: > 100 µM (inactive)
- GI50 [14]: 52.8 µM (inactive)
- GI50 [15]: > 100 µM (inactive)
- GI50 [16]: > 100 µM (inactive)
- GI50 [17]: > 100 µM (inactive)
- GI50 [18]: > 100 µM (inactive)
- GI50 [19]: > 100 µM (inactive)

SMILES: COc1ccc2c(c1)CC[C@@H]1C2CC[C@]2(C)C(=O)N(CCN(C)C)C(=O)CC12 (some centres undefined)
- GI50 [1]: > 100 µM (inactive)
- GI50 [2]: > 100 µM (inactive)
- GI50 [3]: > 100 µM (inactive)
- GI50 [4]: > 100 µM (inactive)
- GI50 [5]: > 100 µM (inactive)
- GI50 [6]: > 100 µM (inactive)
- GI50 [7]: > 100 µM (inactive)
- GI50 [8]: > 100 µM (inactive)
- GI50 [9]: > 100 µM (inactive)
- GI50 [11]: > 100 µM (inactive)
- GI50 [12]: > 100 µM (inactive)
- GI50 [13]: > 100 µM (inactive)
- GI50 [14]: > 100 µM (inactive)
- GI50 [15]: > 100 µM (inactive)
- GI50 [16]: > 100 µM (inactive)
- GI50 [17]: > 100 µM (inactive)
- GI50 [18]: > 100 µM (inactive)
- GI50 [19]: > 100 µM (inactive)

SMILES: N#CC(c1cc2c(cc1Br)OCO2)N1CCOCC1 (centres undefined)
- GI50 [1]: 73.3 µM (inactive)
- GI50 [2]: > 100 µM (inactive)
- GI50 [3]: 61.5 µM (inactive)
- GI50 [4]: 36.4 µM (inactive)
- GI50 [5]: 48.5 µM (inactive)
- GI50 [6]: > 100 µM (inactive)
- GI50 [7]: 98.2 µM (inactive)
- GI50 [8]: 73.8 µM (inactive)
- GI50 [9]: 19.9 µM (inactive)
- GI50 [11]: 9.04 µM (inactive)
- GI50 [12]: 43.7 µM (inactive)
- GI50 [13]: > 100 µM (inactive)
- GI50 [14]: > 100 µM (inactive)
- GI50 [15]: 27.7 µM (inactive)
- GI50 [16]: 42.3 µM (inactive)
- GI50 [17]: 30.1 µM (inactive)
- GI50 [18]: 44.3 µM (inactive)
- GI50 [19]: 20.6 µM (inactive)

SMILES: COc1ccc(/N=C2\C(=O)C3=C(OC(C)(C)CC3)c3ccccc32)cc1
- GI50 [1]: 1.53 µM (inactive)
- GI50 [2]: 2.66 µM (inactive)
- GI50 [3]: 6.37 µM (inactive)
- GI50 [4]: 0.971 µM (active)
- GI50 [5]: 0.871 µM (active)
- GI50 [6]: 1.5 µM (inactive)
- GI50 [7]: 1.31 µM (inactive)
- GI50 [8]: 1.8 µM (inactive)
- GI50 [9]: 1.09 µM (active)
- GI50 [10]: 1.05 µM
- GI50 [11]: 0.873 µM (active)
- GI50 [12]: 1.41 µM (inactive)
- GI50 [13]: 0.968 µM (active)
- GI50 [14]: 1.51 µM (inactive)
- GI50 [15]: 2.11 µM (inactive)
- GI50 [16]: 0.9 µM (active)
- GI50 [17]: 0.361 µM (active)
- GI50 [18]: 0.993 µM (active)
- GI50 [19]: 0.769 µM (active)

SMILES: CCN(CC)/[N+]([O-])=N/OCOC(C)=O
- GI50 [1]: > 100 µM (inactive)
- GI50 [2]: > 100 µM (inactive)
- GI50 [3]: > 100 µM (inactive)
- GI50 [4]: > 100 µM (inactive)
- GI50 [5]: > 100 µM (inactive)
- GI50 [6]: > 100 µM (inactive)
- GI50 [7]: > 100 µM (inactive)
- GI50 [8]: > 100 µM (inactive)
- GI50 [9]: > 100 µM (inactive)
- GI50 [10]: > 100 µM
- GI50 [11]: > 100 µM (inactive)
- GI50 [12]: > 100 µM (inactive)
- GI50 [13]: > 100 µM (inactive)
- GI50 [14]: > 100 µM (inactive)
- GI50 [15]: > 100 µM (inactive)
- GI50 [16]: > 100 µM (inactive)
- GI50 [17]: > 100 µM (inactive)
- GI50 [18]: > 100 µM (inactive)
- GI50 [19]: > 100 µM (inactive)
